Columns and labels:
Mus musculus [1] = assay: Immunomodulatory activity in C57Bl/6 mouse assessed as induction of lymphopenia at 10 mg/kg, po measured after 6 hrs; format: functional
[2] = target: T1, Sphingosine 1-phosphate receptor 3 (Homo sapiens, UniProt Q99500); assay: Displacement of [33P]S1P from human S1P3 receptor expressed in HEK293T cells after 1 hr by liquid scintillation counting analysis; format: cell-based, HEK-293T
[3] = target: T2, Sphingosine 1-phosphate receptor 1 (Homo sapiens, UniProt P21453); assay: Displacement of [33P]S1P from human S1P1 receptor expressed in HEK293T cells after 1 hr by liquid scintillation counting analysis; format: cell-based, HEK-293T
T2 sequence (P21453 whole entry): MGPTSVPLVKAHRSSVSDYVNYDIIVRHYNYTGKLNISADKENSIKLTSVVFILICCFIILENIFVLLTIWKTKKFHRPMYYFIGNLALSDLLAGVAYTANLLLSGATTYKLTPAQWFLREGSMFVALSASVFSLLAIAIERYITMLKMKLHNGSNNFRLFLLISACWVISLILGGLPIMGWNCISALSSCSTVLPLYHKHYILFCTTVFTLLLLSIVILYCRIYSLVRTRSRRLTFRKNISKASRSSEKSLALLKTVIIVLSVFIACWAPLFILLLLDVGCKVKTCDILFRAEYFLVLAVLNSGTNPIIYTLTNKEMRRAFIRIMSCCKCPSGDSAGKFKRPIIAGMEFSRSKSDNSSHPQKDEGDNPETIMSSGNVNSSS

[4] = target: T2, Sphingosine 1-phosphate receptor 1; assay: Agonist activity at human S1P1 receptor expressed in HEK293T cells assessed as stimulation of [35S]GTPgammaS binding; format: functional, cell-based, HEK-293T
[5] = target: T1, Sphingosine 1-phosphate receptor 3; assay: Agonist activity at human S1P3 receptor expressed in HEK293T cells assessed as stimulation of [35S]GTPgammaS binding; format: functional, cell-based, HEK-293T
Homo sapiens [6] = species: Homo sapiens; assay: Selectivity index, ratio of EC50 for human S1P3 to EC50 for human S1P1
Mus musculus [7] = assay: Immunomodulatory activity in C57Bl/6 mouse assessed as induction of lymphopenia at 1 mg/kg, po measured after 6 hrs; format: functional
Mus musculus [8] = assay: Immunomodulatory activity in C57Bl/6 mouse assessed as induction of lymphopenia at 20 mg/kg, iv measured after 6 hrs; format: functional
Homo sapiens [9] = species: Homo sapiens; assay: Selectivity index, ratio of IC50 for human S1P3 to IC50 for human S1P1

T1 sequence (Q99500 whole entry): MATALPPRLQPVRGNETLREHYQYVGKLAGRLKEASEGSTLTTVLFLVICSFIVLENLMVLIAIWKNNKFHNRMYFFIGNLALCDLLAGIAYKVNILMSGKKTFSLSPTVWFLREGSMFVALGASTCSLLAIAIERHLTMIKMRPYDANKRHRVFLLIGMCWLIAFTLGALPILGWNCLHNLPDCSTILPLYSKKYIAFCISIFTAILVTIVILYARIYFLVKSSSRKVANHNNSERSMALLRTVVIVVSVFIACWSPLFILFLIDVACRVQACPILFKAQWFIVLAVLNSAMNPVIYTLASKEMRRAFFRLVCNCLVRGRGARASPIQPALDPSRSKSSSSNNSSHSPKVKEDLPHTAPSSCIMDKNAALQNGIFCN

CCCCCCCCOc1ccc(NC(=O)[C@@H](N)CCC(=O)O)cc1
Activity (Mus musculus [1]): 44%
IC50 [2]: 10000 nM
IC50 [3]: 92 nM

O=C(O)CCc1nc(-c2ccc(OCc3ccc(-c4ccccc4)cc3)c(C(F)(F)F)c2)c[nH]1
IC50 [2]: > 10000 nM
IC50 [3]: 3000 nM

CCCCCCCCOc1ccc(NC(=O)[C@@](C)(N)CC(=O)O)cc1C(F)(F)F
Activity (Mus musculus [1]): 24%
EC50 [4]: 135 nM
EC50 [5]: > 3000 nM
IC50 [2]: > 10000 nM
Ratio EC50 (Homo sapiens [6]): > 22
IC50 [3]: 95 nM

CCCCCCCCc1ccc(CCC(N)(CO)CO)cc1 [FINGOLIMOD]
Activity (Mus musculus [7]): 80%

CCCCCCCCOc1ccc(NC(=O)[C@@H](N)CC(=O)O)cc1C(F)(F)F
Activity (Mus musculus [1]): 33%
Activity (Mus musculus [8]): 60%
EC50 [4]: 231 nM
EC50 [5]: > 3000 nM
IC50 [2]: > 10000 nM
Ratio EC50 (Homo sapiens [6]): > 13
IC50 [3]: 53 nM

N[C@@H](CC(=O)O)c1nc(-c2ccc(OCc3ccc(-c4ccccc4)cc3)c(C(F)(F)F)c2)c[nH]1
EC50 [4]: 161 nM
EC50 [5]: > 3000 nM
IC50 [2]: > 10000 nM
Ratio EC50 (Homo sapiens [6]): > 18.6
IC50 [3]: 17 nM

C[C@](N)(CC(=O)O)c1nc(-c2ccc(OCc3ccc(-c4ccccc4)cc3)c(C(F)(F)F)c2)c[nH]1
EC50 [4]: 700 nM
EC50 [5]: > 3000 nM
IC50 [2]: > 10000 nM
Ratio EC50 (Homo sapiens [6]): > 4
IC50 [3]: 82 nM

CCCCCCCCOc1ccc(NC(=O)[C@@](C)(N)CCC(=O)O)cc1
IC50 [2]: 10000 nM
IC50 [3]: 77 nM

CCCCCCCCOc1ccc(NC(=O)[C@@H](N)CC(=O)O)cc1
Activity (Mus musculus [1]): 57%
EC50 [4]: 164 nM
EC50 [5]: 1800 nM
IC50 [2]: 1050 nM
Ratio IC50 (Homo sapiens [9]): 73
Ratio EC50 (Homo sapiens [6]): 11
IC50 [3]: 14.4 nM

CCCCCCCCc1ccc(NC(=O)[C@@](C)(N)CC(=O)O)cc1C(F)(F)F
IC50 [2]: > 10000 nM
IC50 [3]: 370 nM

CCCCCCCCOc1ccc(NC(=O)[C@@](C)(N)/C=C/C(=O)O)cc1
Activity (Mus musculus [1]): 25%
IC50 [2]: 10000 nM
IC50 [3]: 74 nM
